Experimental data: paper PMC9699003, “Arene Variation of Highly Cytotoxic Tridentate Naphthoquinone-Based Ruthenium(II) Complexes and In-Depth In Vitro Studies” (Pharmaceutics, 2022)

Tests used:
Type in all cases: cell-based, human
[1] = tested on: A549 non-small cell lung cancer cells; assay: MTT assay (cytotoxicity)
Procedure: (§1) CH1/PA-1 ovarian teratocarcinoma cells (provided by L. R. Kelland, CRC Centre for Cancer Therapeutics, Institute of Cancer Research, Sutton, UK; confirmed by STR profiling as PA-1 ovarian teratocarcinoma cells at Multiplexion, Heidelberg, Germany), SW480 colon carcinoma and A549 non-small cell lung cancer cells (both obtained from the American Type Culture Collection, Manassas, VA, USA) were grown as adherent cultures in 75 cm² culture flasks (CytoOne, Starlab, Hamburg, Germany) by using minimal essential medium (MEM) supplemented with 1 mM sodium pyruvate, 4 mM L-glutamine, 1% (v/v) nonessential amino acids from 100-fold stock (all purchased from Sigma-Aldrich) and 10% heat-inactivated fetal bovine serum (BioWest, Nuaillé, France). Cells were maintained under standard culture conditions with 5% CO2 at 37 °C in a humidified atmosphere.
(§2) The 3-(4,5-dimethylthiazol-2-yl)-2,5-diphenyl-2H-tetrazolium bromide (MTT, Acros Organics, Geel, Belgium) assay was used to detect the cytotoxicity of the compounds after 24 h and 96 h incubation. In brief, cells were harvested from culture flasks and the following cell numbers (each in 100 µL) were seeded into 96-well culture plates (CytoOne, tissue culture treated, Starlab, Hamburg, Germany) for 24 h incubation: 1 × 10^4 (CH1/PA-1), 1 × 10^4 (SW480) and 1.5 × 10^4 (A549) cells per well; and for 96 h incubation: 1 × 10^3 (CH1/PA-1), 2 × 10^3 (SW480) and 3 × 10^3 (A549) cells per well. After 24 h, cells resuming their exponential growth rate were treated with test compounds at nine concentrations obtained by serial two-fold dilution. Stock solutions were prepared in DMSO (20 mM or 40 mM) and diluted in supplemented MEM. An amount of 100 µL of each concentration was added to the plates in triplicates and cells were exposed for 24 or 96 h. Afterward, the medium was replaced with 100 µL of MTT solution (5 mg/mL) in phosphate-buffered saline (PBS, Sigma-Aldrich), diluted 1:7 in RPMI 1640 medium (supplemented with 4 mM L-glutamine and 10% heat-inactivated FBS). Upon cell-viability-dependent conversion of the yellow, water-soluble tetrazolium salt into purple formazan products for 4 h, the crystals were dissolved in 150 µL DMSO. The absorbance of the resulting solutions, which is directly proportional to the number of viable cells, was measured at 550 nm (and at 690 nm as a reference) with a microplate reader (ELx808, BioTek, Winoosky, VT, USA) and Gen5TM 3.08 software (BioTek). Blank-corrected optical densities were subjected to graphical evaluation and interpolation of IC50 values. At least three biologically and technically independent experiments were performed.

[2] = tested on: CH1/PA-1 ovarian teratocarcinoma cells; assay: MTT assay (cytotoxicity); settings: CH1/PA-1, MTT
Procedure: as §1, §2

[3] = tested on: SW480 colon carcinoma cells; assay: MTT assay (cytotoxicity)
Procedure: as §1, §2

CH1/PA-1 cells = assay: Cell cycle distribution (PI staining, flow cytometry); settings: CH1/PA-1, 24 h
Procedure: (§3) For the flow-cytometric determination of cell cycle distribution, CH1/PA-1 (8 × 10^4 cells/well) and SW480 (1.2 × 10^5 cells/well) cells were seeded into 12-well plates (CytoOne, tissue culture treated) in 1 mL supplemented MEM. In the first 24 h, the cells were allowed to settle and resume exponential growth. […] Gemcitabine (Sigma-Aldrich, 0.01 and 0.05 µM) and etoposide (Sigma-Aldrich, 0.25, 0.5 and 1 µM) were used as positive controls. After removal of the treatment medium, cells were washed with 1 mL PBS and trypsinized. Cells were collected in Eppendorf tubes and centrifuged (300 g, 3 min), and the supernatant was discarded. In the following step, cells were washed with 1 mL PBS and resuspended in 500 µL PI/HFS buffer (0.1% v/v Triton X-100, 0.1% w/v sodium citrate, in PBS) containing 25 µg/mL propidium iodide (PI, 1.0 mg/mL, Sigma-Aldrich). The staining was carried out overnight at 4 °C in the dark, and 200 µL of the cell suspension was loaded into 96-well round bottom plates (Falcon). Samples were measured with a Millipore Guava easyCyte 8HT flow cytometer with GuavaSoft™ software in the InCyte-modus, and 10,000 events/sample were detected. Data were analyzed with FlowJo software v 10.8.1 (Tree Star, Ashland, OR, USA) using Watson algorithm. Percentages of cells in the three cell cycle phases (G1/G0, S and G2/M) were calculated by integrating the resulting histograms of fluorescence signals (Figures S29 and S30). Experiments were repeated at least three times. For statistical evaluation, an unpaired t-test with Welch’s correction was performed by using GraphPad PRISM software.

SW480 cells = assay: as above; settings: SW480, 24 h
Procedure: as §3

Row | Structure (SMILES) | IC50 ([1]; 24 h exposure) [µM] | IC50 ([1]; 96 h exposure) [µM] | IC50 ([2]; 24 h exposure) [µM] | IC50 ([2]; 96 h exposure) [µM] | IC50 ([3]; 24 h exposure) [µM] | IC50 ([3]; 96 h exposure) [µM] | Cells in G1/G0 phase (CH1/PA-1 cells; 100 µM) [%] | Cells in G2/M phase (CH1/PA-1 cells; 100 µM) [%] | Cells in S phase (CH1/PA-1 cells; 100 µM) [%] | Cells in G1/G0 phase (CH1/PA-1 cells; 150 µM) [%] | Cells in G2/M phase (CH1/PA-1 cells; 150 µM) [%] | Cells in S phase (CH1/PA-1 cells; 150 µM) [%] | Cells in G1/G0 phase (CH1/PA-1 cells; 200 µM) [%] | Cells in G2/M phase (CH1/PA-1 cells; 200 µM) [%] | Cells in S phase (CH1/PA-1 cells; 200 µM) [%] | Cells in G1/G0 phase (SW480 cells; 5 µM) [%] | Cells in G2/M phase (SW480 cells; 5 µM) [%] | Cells in S phase (SW480 cells; 5 µM) [%] | also measured
1 | CC1=C([O-])C([O-])(n2cccn2)c2ccccc2C1=O.Cc1ccccc1.[Ru+2] (racemic) [Compound 3] | > 200 | 72 ± 12 | 121 ± 18 | 138 ± 10 | 11 ± 2 | 2.8 ± 0.7 | 25.8 ± 4.6 | 40.1 ± 2.7 | 38.6 ± 1.5 | 23.1 ±7.0 | 36.9 ± 1.5 | 40.8 ± 0.6 | 24.9 ± 5.8 | 40.3 ± 2.6 | 36.4 ± 1.2 | 20.4 ± 5.9 | 28.2 ± 5.6 | 54.1 ± 3.2 | Cells in G1/G0 phase (SW480 cells; 1.25 µM): 28.4 ± 7.8%; Cells in G2/M phase (SW480 cells; 1.25 µM): 35.1 ± 1.8%; Cells in S phase (SW480 cells; 1.25 µM): 38.2 ± 7.1%; Cells in G1/G0 phase (SW480 cells; 2.5 µM): 17.6 ± 4.5%; Cells in G2/M phase (SW480 cells; 2.5 µM): 43.1 ± 7.6%; Cells in S phase (SW480 cells; 2.5 µM): 43.3 ± 7.4%
2 | CC1=C([O-])C([O-])(n2cccn2)c2ccccc2C1=O.Cc1ccc(C(C)C)cc1.[Ru+2] (racemic) [Compound 1] | 3.8 ± 2.6 |  | 59 ± 18 |  | 0.46 ± 0.14 |  | 19.8 ± 2.1 | 40.9 ± 4.0 | 45.8 ± 3.8 | 20.0 ± 1.3 | 31.0 ± 3.2 | 52.9 ± 1.9 |  |  |  |  |  |  | Cells in G1/G0 phase (CH1/PA-1 cells; 50 µM): 18.7 ± 1.7%; Cells in G2/M phase (CH1/PA-1 cells; 50 µM): 48.2 ± 5.5%; Cells in S phase (CH1/PA-1 cells; 50 µM): 39.2 ± 8.7%; Increase of S phase fraction relative to untreated control (CH1/PA-1 cells; concentration-dependent): up to 11%; Cells in G1/G0 phase (SW480 cells; 0.039 µM): 23.8 ± 6.1%; Cells in G2/M phase (SW480 cells; 0.039 µM): 37.2 ± 2.3%; Cells in S phase (SW480 cells; 0.039 µM): 40.0 ± 2.1%; Cells in G1/G0 phase (SW480 cells; 0.078 µM): 15.4 ± 1.2%; Cells in G2/M phase (SW480 cells; 0.078 µM): 34.5 ± 2.1%; Cells in S phase (SW480 cells; 0.078 µM): 53.4 ± 1.1%; Cells in G1/G0 phase (SW480 cells; 0.16 µM): 25.0 ± 8.2%; Cells in G2/M phase (SW480 cells; 0.16 µM): 22.5 ± 4.3%; Cells in S phase (SW480 cells; 0.16 µM): 56.2 ± 8.4%
3 | CC1=C([O-])C([O-])(n2cccn2)c2ccccc2C1=O.[Ru+2].c1ccccc1 (racemic) [Compound 2] | > 200 | 141 ± 38 | 170 ± 23 | 157 ± 8 | 31 ± 3 | 9.9 ± 2.5 | 29.9 ± 5.7 | 37.0 ± 6.1 | 39.9 ± 1.4 | 30.8 ± 7.1 | 38.3 ± 5.3 | 36.5 ± 3.3 | 29.7 ± 8.5 | 33.0 ± 3.0 | 39.1 ± 0.8 | 36.0 ± 6.7 | 32.0 ± 2.6 | 34.2 ± 3.8 | Cells in G1/G0 phase (SW480 cells; 10 µM): 22.6 ± 5.7%; Cells in G2/M phase (SW480 cells; 10 µM): 40.9 ± 4.2%; Cells in S phase (SW480 cells; 10 µM): 38.8 ± 7.9%; Cells in G1/G0 phase (SW480 cells; 20 µM): 22.3 ± 6.3%; Cells in G2/M phase (SW480 cells; 20 µM): 27.9 ± 9.0%; Cells in S phase (SW480 cells; 20 µM): 52.1 ± 3.3%
